Results reported in patent publication US12227488B2, “Small molecule degraders of Helios and methods of use” (DANA-FARBER CANCER INSTITUTE, INC., priority 2018, dated 2025).
Entries after “also recorded” stand apart in the source; their conditions may differ.

What was measured:
IKZF2 = test: Cellular degradation assay, eGFP-IKZF2Δ fusion with mCherry reporter in Flp-In 293 cells; type: cell-based; conditions: for IKZF2 GFP/RFP Relative Abundance: 5 h incubation, n=1
How it was run: (§1)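 Flp-In 293 cells stably expressing eGFP-tagged degron fusions with P2A-mCherry reporter were treated with compound titrations (0.5% DMSO) for 5 hours. Imaging quantified GFP-positive/mCherry-positive cell fraction per well; DC50 at 5 h from nonlinear variable-slope fit.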

SALL4 ZNF1-2 = target: T1, SALL4 ZNF1-2 (Homo sapiens, UniProt Q96SW2+Q9UJQ4); test: Cellular degradation assay, eGFP-SALL4 ZnF1-2 fusion with mCherry reporter in Flp-In 293 cells; type: cell-based; conditions: 5 h incubation, n=1
T1 construct: IKZF1Δ, IKZF2Δ, GSPT1 and SALL4 ZnF1-2 were subcloned; expressed in transfected cells; host or cells: Flp-In 293
T1 sequence (Q9UJQ4 378-438 limits assumed): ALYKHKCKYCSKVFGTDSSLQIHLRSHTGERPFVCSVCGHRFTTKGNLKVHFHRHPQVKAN
T1 sequence (Q96SW2 whole entry, the tested form may be a part): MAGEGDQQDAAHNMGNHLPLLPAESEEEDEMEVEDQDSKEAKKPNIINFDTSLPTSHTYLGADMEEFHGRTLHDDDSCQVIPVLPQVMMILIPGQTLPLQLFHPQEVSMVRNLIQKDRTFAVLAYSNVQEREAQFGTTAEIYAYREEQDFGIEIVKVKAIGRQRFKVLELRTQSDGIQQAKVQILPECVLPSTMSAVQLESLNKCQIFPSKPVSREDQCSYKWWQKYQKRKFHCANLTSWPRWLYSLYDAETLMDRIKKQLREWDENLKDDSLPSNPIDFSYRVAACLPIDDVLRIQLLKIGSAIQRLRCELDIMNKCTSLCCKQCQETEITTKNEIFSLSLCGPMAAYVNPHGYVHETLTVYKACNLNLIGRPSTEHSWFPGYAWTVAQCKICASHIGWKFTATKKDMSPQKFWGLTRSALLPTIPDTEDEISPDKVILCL
T1 sequence (Q16531 whole entry partner, the tested form may be a part): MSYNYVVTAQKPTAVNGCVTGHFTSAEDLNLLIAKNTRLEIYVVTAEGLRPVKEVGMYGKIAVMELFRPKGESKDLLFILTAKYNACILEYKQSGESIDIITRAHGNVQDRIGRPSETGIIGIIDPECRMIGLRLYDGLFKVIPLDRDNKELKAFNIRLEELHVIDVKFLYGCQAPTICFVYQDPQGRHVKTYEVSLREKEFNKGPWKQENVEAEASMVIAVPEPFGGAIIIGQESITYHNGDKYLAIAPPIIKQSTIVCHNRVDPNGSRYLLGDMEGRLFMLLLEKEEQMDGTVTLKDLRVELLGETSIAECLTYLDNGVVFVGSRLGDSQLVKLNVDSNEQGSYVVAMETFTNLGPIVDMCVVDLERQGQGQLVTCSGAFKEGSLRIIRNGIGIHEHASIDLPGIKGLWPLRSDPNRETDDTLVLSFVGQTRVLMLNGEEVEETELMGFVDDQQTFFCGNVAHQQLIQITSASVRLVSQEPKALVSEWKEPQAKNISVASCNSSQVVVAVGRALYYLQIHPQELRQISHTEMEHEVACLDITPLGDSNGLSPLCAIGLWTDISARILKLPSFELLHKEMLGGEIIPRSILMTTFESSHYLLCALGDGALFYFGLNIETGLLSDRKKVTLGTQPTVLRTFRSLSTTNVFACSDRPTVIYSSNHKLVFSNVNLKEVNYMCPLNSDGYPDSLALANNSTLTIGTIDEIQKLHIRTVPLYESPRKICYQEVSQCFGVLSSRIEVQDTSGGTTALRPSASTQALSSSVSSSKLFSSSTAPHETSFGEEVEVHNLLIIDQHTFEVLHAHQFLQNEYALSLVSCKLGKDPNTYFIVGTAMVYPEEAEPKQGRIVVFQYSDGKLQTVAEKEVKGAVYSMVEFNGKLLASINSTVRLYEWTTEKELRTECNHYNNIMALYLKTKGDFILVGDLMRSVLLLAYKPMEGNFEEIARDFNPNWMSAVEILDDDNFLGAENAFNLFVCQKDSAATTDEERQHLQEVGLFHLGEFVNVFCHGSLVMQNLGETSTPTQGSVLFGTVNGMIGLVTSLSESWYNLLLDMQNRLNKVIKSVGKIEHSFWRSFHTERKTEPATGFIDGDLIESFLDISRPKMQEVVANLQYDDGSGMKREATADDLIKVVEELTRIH
How it was run: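 Flp-In 293 cells stably expressing eGFP-SALL4 ZnF1-2 fusion plus mCherry reporter were treated with compound titrations (0.5% DMSO) for 5 hours. Imaging at 488/561 nm gave, per well, the fraction of GFP-positive among mCherry-positive cells.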

CRBN and Helios (IKZF2) = target: T2, CRBN and Helios (IKZF2) (Homo sapiens, UniProt Q96SW2+Q9UKS7); test: TR-FRET dimerization assay (CRBN-IKZF2 ternary complex formation); type: binding; conditions: for TR-FRET-IKZF2 (Normalized to CC-885): n=1
T2 construct: His (N); Strep (N)
T2 sequence (Q96SW2 whole entry): as the sequence (Q96SW2 whole entry, the tested form may be a part) above
T2 sequence (Q9UKS7 whole entry): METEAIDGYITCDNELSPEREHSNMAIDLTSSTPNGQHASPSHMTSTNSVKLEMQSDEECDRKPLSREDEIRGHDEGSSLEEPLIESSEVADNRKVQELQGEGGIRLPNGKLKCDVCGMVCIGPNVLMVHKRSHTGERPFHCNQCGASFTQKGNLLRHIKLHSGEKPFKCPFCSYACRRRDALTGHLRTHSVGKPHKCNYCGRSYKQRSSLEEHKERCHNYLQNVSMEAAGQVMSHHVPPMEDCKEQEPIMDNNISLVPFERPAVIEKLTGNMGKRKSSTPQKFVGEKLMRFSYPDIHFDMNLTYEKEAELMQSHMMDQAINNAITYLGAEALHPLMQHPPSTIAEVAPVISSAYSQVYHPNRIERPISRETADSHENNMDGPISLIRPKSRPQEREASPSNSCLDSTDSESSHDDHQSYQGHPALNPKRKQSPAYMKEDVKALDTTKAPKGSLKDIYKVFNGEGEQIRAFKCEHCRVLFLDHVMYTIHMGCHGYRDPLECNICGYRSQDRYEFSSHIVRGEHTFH
How it was run: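 BODIPY-labeled DDB1ΔB-CRBN and in vitro biotinylated IKZF2 were treated with increasing compound concentrations plus tracer Terbium-Streptavidin and incubated 15 min at rt. Recruitment was quantified as the 520/490 nm TR-FRET ratio; values are single measurements (n=1), each averaged from at least three technical replicates.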

GSPT1 = GSPT1 (Homo sapiens, UniProt P15170+Q96SW2); test: Cellular degradation assay, eGFP-GSPT1 fusion with mCherry reporter in Flp-In 293 cells; type: cell-based; parameters: expressed in transfected cells; host or cells: Flp-In 293; conditions: for GSPT1 GFP/RFP Relative Abundance: 5 h incubation, n=1
Sequence of GSPT1 (P15170 whole entry, the tested form may be a part): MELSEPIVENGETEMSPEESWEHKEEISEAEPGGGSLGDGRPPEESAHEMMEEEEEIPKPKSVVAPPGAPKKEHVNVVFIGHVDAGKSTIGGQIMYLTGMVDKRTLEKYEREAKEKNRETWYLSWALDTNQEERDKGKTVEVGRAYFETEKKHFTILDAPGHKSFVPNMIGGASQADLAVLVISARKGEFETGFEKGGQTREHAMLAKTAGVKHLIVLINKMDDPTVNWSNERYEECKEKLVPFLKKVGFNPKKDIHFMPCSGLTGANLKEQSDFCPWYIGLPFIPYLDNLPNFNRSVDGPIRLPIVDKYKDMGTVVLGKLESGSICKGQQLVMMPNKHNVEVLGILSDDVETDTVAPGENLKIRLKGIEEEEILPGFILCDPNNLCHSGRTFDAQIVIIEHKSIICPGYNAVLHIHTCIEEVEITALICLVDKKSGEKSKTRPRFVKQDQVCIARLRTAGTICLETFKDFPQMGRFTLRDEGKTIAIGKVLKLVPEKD
Sequence of GSPT1 (Q96SW2 whole entry, the tested form may be a part): as the sequence (Q96SW2 whole entry, the tested form may be a part) above
Sequence of GSPT1 (Q16531 whole entry partner, the tested form may be a part): as the sequence (Q16531 whole entry partner, the tested form may be a part) above
How it was run: as §1

IKZF1 = target: T3, IKZF1 (Homo sapiens, UniProt Q13422); test: Cellular degradation assay, eGFP-IKZF1Δ fusion with mCherry reporter in Flp-In 293 cells; type: cell-based; conditions: for IKZF1 GFP/RFP Relative Abundance: 5 h incubation, n=1
T3 construct: expressed in transfected cells; host or cells: Flp-In 293
T3 sequence (Q13422 83-213 isoform Q13422-7 limits assumed): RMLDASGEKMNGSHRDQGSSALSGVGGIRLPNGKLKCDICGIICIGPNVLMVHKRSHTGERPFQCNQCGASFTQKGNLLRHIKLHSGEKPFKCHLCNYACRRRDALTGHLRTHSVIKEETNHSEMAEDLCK
T3 sequence (Q96SW2 whole entry partner, the tested form may be a part): as the sequence (Q96SW2 whole entry, the tested form may be a part) above
T3 sequence (Q16531 2-1140 partner limits assumed): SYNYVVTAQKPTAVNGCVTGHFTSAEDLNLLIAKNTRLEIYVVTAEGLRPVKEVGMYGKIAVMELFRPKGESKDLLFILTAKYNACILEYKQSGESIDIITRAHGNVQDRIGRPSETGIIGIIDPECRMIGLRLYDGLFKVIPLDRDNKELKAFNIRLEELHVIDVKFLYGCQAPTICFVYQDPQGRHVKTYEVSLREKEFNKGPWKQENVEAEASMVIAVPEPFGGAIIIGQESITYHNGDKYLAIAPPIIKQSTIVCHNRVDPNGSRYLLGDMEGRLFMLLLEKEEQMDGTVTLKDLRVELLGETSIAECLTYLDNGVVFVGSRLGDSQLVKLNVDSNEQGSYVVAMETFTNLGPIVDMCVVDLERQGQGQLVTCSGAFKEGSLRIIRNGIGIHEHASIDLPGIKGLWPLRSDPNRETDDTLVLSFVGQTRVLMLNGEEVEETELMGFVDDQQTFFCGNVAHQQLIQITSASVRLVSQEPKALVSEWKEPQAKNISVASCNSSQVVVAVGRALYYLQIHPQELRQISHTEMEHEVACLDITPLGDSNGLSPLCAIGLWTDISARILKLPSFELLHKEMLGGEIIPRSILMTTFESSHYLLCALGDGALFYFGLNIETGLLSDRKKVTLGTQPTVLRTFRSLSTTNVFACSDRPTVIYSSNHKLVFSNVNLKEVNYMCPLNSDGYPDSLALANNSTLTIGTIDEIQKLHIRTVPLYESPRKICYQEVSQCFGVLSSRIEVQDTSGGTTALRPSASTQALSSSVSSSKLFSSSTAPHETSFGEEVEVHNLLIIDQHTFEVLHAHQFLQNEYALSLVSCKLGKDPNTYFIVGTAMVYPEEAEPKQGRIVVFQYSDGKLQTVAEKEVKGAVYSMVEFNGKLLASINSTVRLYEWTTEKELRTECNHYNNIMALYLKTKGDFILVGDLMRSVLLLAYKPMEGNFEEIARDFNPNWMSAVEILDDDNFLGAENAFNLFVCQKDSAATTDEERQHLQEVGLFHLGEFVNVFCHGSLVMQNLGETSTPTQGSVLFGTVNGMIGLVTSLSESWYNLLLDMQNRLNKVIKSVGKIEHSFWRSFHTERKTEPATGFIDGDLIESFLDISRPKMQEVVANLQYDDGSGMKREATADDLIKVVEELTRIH
How it was run: as §1

[1] = compound concentration 2.00E−05
[2] = compound concentration 2.00E−06
[3] = compound concentration 2.00E−07
[4] = compound concentration 6.6667E−05
[5] = compound concentration 6.6667E−06
[6] = compound concentration 6.6667E−07 (667 nM)
[7] = half degradation at 5 h (DC50,5 h), triplicate, 11 point dose response

| SMILES | IKZF2 GFP/RFP Relative Abundance (IKZF2; [1]) | IKZF2 GFP/RFP Relative Abundance (IKZF2; [2]) | IKZF2 GFP/RFP Relative Abundance (IKZF2; [3]) | SALL4 ZNF1-2 GFP/RFP Relative Abundance (SALL4 ZNF1-2; [1]) | SALL4 ZNF1-2 GFP/RFP Relative Abundance (SALL4 ZNF1-2; [2]) | SALL4 ZNF1-2 GFP/RFP Relative Abundance (SALL4 ZNF1-2; [3]) | TR-FRET-IKZF2 (Normalized to CC-885) (CRBN and Helios (IKZF2); [4]) | TR-FRET-IKZF2 (Normalized to CC-885) (CRBN and Helios (IKZF2); [5]) | TR-FRET-IKZF2 (Normalized to CC-885) (CRBN and Helios (IKZF2); [6]) | GSPT1 GFP/RFP Relative Abundance (GSPT1; [1]) | GSPT1 GFP/RFP Relative Abundance (GSPT1; [2]) | GSPT1 GFP/RFP Relative Abundance (GSPT1; [3]) | IKZF1 GFP/RFP Relative Abundance (IKZF1; [1]) | IKZF1 GFP/RFP Relative Abundance (IKZF1; [2]) | IKZF1 GFP/RFP Relative Abundance (IKZF1; [3]) | IKZF2 cellular degradation, in words (IKZF2; Table 1 summary) | DC50 (IKZF2; [7]) | TR-FRET signal (520/490 ratio), CRBN-Helios dimerization, in words (CRBN and Helios (IKZF2); FIG. 1B, 2A, 5) | DC50 (GSPT1; [7]) | DC50 (IKZF1; [7]) |
| --- | --- | --- | --- | --- | --- | --- | --- | --- | --- | --- | --- | --- | --- | --- | --- | --- | --- | --- | --- | --- |
| CN(C)C(=O)c1ccc(NC2=CC(=O)N(C3CCC(=O)NC3=O)C2=O)cc1 (centres unmarked) [Compound 34, 4-((1-(2,6-dioxopiperidin-3-yl)-2,5-dioxo-2,5-dihydro-1H-pyrrol-3-yl)amino)-N,N-dimethylbenzamide] | 0.981 | 1.018 | 0.950 | 0.940 | 0.944 | 0.943 | 0.077 | 0.064 | 0.059 | 0.867 | 0.821 | 0.878 | 1.042 | 0.984 | 0.904 | – | – | – | – | – |
| Cc1ccc(NC(=O)NCc2ccc3c(c2)CN(C2CCC(=O)NC2=O)C3=O)cc1Cl (centres unmarked) [CC-885, reference compound] | 0.277 | 0.281 | 0.289 | 1.000 | 0.876 | 0.852 | 1.065 | 0.982 | 0.953 | 0.240 | 0.041 | 0.012 | 0.133 | 0.071 | 0.077 | degrade the IKZF2 in cellular assay | 80.7 nM | some activity; also recorded: able to recruit IKZF2 to CRBN | 0.084 nM | 0.56 nM |
| Cc1ccc(NC(=O)NCCCNC2=CC(=O)N(C3CCC(=O)NC3=O)C2=O)cc1Cl (centres unmarked) [Compound 47, 1-(3-chloro-4-methylphenyl)-3-(3-((1-(2,6-dioxopiperidin-3-yl)-2,5-dioxo-2,5-dihydro-1H-pyrrol-3-yl)amino)propyl)urea] | 1.019 | 1.051 | 0.995 | 1.060 | 1.039 | 1.010 | 0.288 | 0.230 | 0.191 | 0.034 | 0.041 | 0.036 | 0.312 | 0.298 | 0.326 | – | – | – | – | – |
| O=C1CCC(N2C(=O)C=C(Nc3ccc(Cc4ccccc4)cc3)C2=O)C(=O)N1 (centres unmarked) [Compound 39, 3-(3-((4-benzylphenyl)amino)-2,5-dioxo-2,5-dihydro-1H-pyrrol-1-yl)piperidine-2,6-dione] | 1.070 | 1.008 | 1.047 | 1.110 | 1.006 | 1.043 | 0.271 | 0.230 | 0.174 | 0.743 | 0.813 | 0.830 | 0.705 | 0.691 | 0.677 | – | – | – | – | – |
